Here are results for 14 molecules from PMC11982978, “Cancer hotspot mutations rewire ERK2 specificity by selective exclusion of docking interactions” (The Journal of Biological Chemistry, 2025).

Type in all cases: biochemical
The target in one test is T1, ERK2 D319N (Mus musculus, UniProt P63085, D319N).
T1 construct: His6; made in house; host or cells: E. coli BL21(DE3), co-expressed with GST-MEK1ΔN3
Briefly: Competitive peptide kinase assay (D-peptide inhibition), ERK2 D319N. Conditions: Table S1, 5 μM reporter peptide, 10 nM ERK2, 10 μM ATP, three independent experiments.

The next test deals with T2, ERK2 R133K (Mus musculus, UniProt P63085, R133K).
T2 construct: His6; made in house; host or cells: E. coli BL21(DE3), co-expressed with GST-MEK1ΔN3
As to the kind of experiment: Competitive peptide kinase assay (D-peptide inhibition), ERK2 R133K. Conditions: 10 nM ERK2, 10 μM ATP.

Another test has as its target T3, ERK2 WT (Mus musculus, UniProt P63085).
T3 construct: His6; made in house; host or cells: E. coli BL21(DE3), co-expressed with GST-MEK1ΔN3
As to the kind of experiment: Competitive peptide kinase assay (D-peptide inhibition), ERK2 WT. The following applies: 10 nM ERK2, 10 μM ATP.

In a further test the target is T4, ERK2 E322K (Mus musculus, UniProt P63085, E320K).
T4 construct: His6; made in house; host or cells: E. coli BL21(DE3), co-expressed with GST-MEK1ΔN3
As to the kind of experiment: Competitive peptide kinase assay (D-peptide inhibition), ERK2 E322K. The following applies: 10 nM ERK2, 10 μM ATP.

[1] abbreviates: Table 2, 5 μM D-site dependent reporter peptide, pH 7.4, fluorescence, mean of three independent replicates.
The mark [2] stands for this setting: Table 2, 5 μM reporter peptide, mean of three independent replicates, read-out: IC50, ERK2 E322 K.
The mark [3] stands for this setting: Table S1, 5 μM reporter peptide, three independent experiments.

pIC50: −log10 of the molar value. Where two headings read alike, the source gives them in different places. Peptide text beside a SMILES is read from it. Some results are limits rather than exact numbers.

T3 sequence (P63085 whole entry): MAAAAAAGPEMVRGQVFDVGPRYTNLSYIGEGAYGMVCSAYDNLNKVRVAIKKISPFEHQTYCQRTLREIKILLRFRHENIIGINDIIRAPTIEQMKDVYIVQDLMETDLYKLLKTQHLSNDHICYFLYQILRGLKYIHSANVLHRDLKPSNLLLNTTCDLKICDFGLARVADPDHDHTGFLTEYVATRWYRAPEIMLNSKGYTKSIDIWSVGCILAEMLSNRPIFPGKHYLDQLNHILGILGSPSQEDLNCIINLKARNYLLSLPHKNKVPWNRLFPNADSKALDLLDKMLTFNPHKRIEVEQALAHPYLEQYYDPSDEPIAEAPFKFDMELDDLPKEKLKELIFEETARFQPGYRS
T4 sequence (P63085 whole entry E320K): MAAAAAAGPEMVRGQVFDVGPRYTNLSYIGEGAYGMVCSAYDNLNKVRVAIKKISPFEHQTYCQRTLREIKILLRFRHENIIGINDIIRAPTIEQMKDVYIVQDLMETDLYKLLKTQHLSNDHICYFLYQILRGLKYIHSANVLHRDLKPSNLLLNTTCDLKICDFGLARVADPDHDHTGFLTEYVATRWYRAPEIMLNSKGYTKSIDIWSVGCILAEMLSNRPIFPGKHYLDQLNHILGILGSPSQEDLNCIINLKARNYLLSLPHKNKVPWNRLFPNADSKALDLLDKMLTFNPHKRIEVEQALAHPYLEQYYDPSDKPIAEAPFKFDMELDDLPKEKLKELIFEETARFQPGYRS
T2 sequence (P63085 whole entry R133K): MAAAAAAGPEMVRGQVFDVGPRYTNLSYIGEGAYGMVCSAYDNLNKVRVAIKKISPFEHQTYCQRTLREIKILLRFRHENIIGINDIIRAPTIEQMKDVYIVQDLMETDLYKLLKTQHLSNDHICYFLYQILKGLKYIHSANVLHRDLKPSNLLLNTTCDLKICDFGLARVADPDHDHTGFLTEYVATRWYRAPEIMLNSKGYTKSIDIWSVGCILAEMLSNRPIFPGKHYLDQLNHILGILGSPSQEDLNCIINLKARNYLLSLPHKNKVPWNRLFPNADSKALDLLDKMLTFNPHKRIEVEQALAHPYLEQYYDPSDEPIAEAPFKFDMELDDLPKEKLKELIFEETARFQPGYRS
T1 sequence (P63085 whole entry D319N): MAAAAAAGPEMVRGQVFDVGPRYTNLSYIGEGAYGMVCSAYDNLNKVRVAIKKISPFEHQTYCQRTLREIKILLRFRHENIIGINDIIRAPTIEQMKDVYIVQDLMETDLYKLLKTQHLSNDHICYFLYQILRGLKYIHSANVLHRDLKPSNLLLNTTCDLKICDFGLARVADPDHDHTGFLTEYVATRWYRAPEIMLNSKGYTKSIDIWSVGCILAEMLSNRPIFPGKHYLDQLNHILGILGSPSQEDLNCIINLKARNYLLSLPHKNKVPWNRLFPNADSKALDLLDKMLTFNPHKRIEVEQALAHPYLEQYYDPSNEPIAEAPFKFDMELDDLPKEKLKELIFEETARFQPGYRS

A word on the pIC50: it is the IC50 on a negative log10 scale, so that one unit is a factor of ten. Consider `CC(C)C[C@H](NC(=O)[C@H](C)NC(=O)[C@@H](N)Cc1ccc(O)cc1)C(=O)NCC(=O)N[C@@H](CO)C(=O)N[C@@H](CCCNC(=N)N)C(=O)N[C@@H](CCCNC(=N)N)C(=O)NCC(=O)N[C@@H](CCCNC(=N)N)C(=O)N[C@@H](CO)C(=O)N[C@@H](CO)C(=O)N[C@@H](CC(C)C)C(=O)N[C@@H](CO)C(=O)N[C@@H](CC(C)C)C(=O)N[C@@H](C)C(=O)N[C@@H](CCCCN)C(=O)O` [ARHGEF2], for which, at ERK2 D319N, the pIC50 was 3.52.

For `CC[C@H](C)[C@H](NC(=O)[C@H](C)NC(=O)[C@@H](N)Cc1ccc(O)cc1)C(=O)N[C@@H](CCCNC(=N)N)C(=O)N[C@@H](C)C(=O)N[C@@H](CCCNC(=N)N)C(=O)N[C@@H](CCCNC(=N)N)C(=O)NCC(=O)NCC(=O)N[C@@H](CC(C)C)C(=O)N1CCC[C@H]1C(=O)N[C@@H](CCCNC(=N)N)C(=O)N[C@@H](CC(C)C)C(=O)N[C@@H](C)C(=O)N[C@H](C(=O)N[C@@H](CO)C(=O)N[C@@H](CC(=O)O)C(=O)O)C(C)C` [ISG20 peptide G7+] (H-YAIRARRGGLPRLAVSD-OH), the pIC50 at ERK2 R133K (Table 2, 5 μM reporter peptide, mean of three independent replicates, read-out: IC50, ERK2 R133 K) is 3.77; at ERK2 WT (setting [1]), 4.12; at ERK2 E322K (setting [2]), 3.68.

For `CC[C@H](C)[C@H](NC(=O)[C@@H](NC(=O)[C@H](CC(C)C)NC(=O)[C@H](C)NC(=O)[C@@H]1CCCN1C(=O)[C@H](CC(C)C)NC(=O)[C@@H](NC(=O)[C@@H]1CCCN1C(=O)[C@H](CCCCN)NC(=O)[C@H](CCCNC(=N)N)NC(=O)[C@H](CCCNC(=N)N)NC(=O)[C@H](C)NC(=O)[C@H](C)NC(=O)[C@@H](N)Cc1ccc(O)cc1)C(C)C)[C@@H](C)O)C(=O)N[C@@H](CC(N)=O)C(=O)N1CCC[C@H]1C(=O)O` [MAP2K2] (H-YAARRKPVLPALTINP-OH), the pIC50 was 4.54 at ERK2 R133K (setting [3]), 4.64 on ERK2 WT (setting [3]), 4.39 on ERK2 E322K (setting [3]) and 4.64 on ERK2 D319N.

Take `CC[C@H](C)[C@H](NC(=O)[C@H](C)NC(=O)[C@@H](N)Cc1ccc(O)cc1)C(=O)NCC(=O)N[C@@H](CCCNC(=N)N)C(=O)N[C@@H](C)C(=O)N[C@@H](CCCNC(=N)N)C(=O)N[C@@H](CCCNC(=N)N)C(=O)NCC(=O)N[C@@H](CC(C)C)C(=O)N1CCC[C@H]1C(=O)N[C@@H](CCCNC(=N)N)C(=O)N[C@@H](CC(C)C)C(=O)N[C@@H](C)C(=O)N[C@H](C(=O)N[C@@H](CO)C(=O)N[C@@H](CC(=O)O)C(=O)O)C(C)C` [ISG20 peptide G2+] (H-YAIGRARRGLPRLAVSD-OH): the pIC50 was 3.92 on ERK2 WT (setting [1]) and 3.77 on ERK2 E322K (setting [2]).

Take `CC(C)C[C@H](NC(=O)[C@H](CC(=O)O)NC(=O)[C@H](CCCNC(=N)N)NC(=O)[C@@H]1CCCN1C(=O)[C@H](CCCCN)NC(=O)[C@H](CCCNC(=N)N)NC(=O)CNC(=O)[C@H](CCCCN)NC(=O)[C@H](C)NC(=O)[C@@H](N)Cc1ccc(O)cc1)C(=O)N[C@@H](CCC(=O)O)C(=O)N[C@@H](CC(C)C)C(=O)N1CCC[C@H]1C(=O)N[C@@H](CC(C)C)C(=O)N[C@@H](CO)C(=O)N1CCC[C@H]1C(=O)O` [ELK1] (H-YAKGRKPRDLELPLSP-OH): the pIC50 at ERK2 R133K (setting [3]) is 4.24; at ERK2 WT (setting [3]), 4.46; on ERK2 E322K (setting [3]) it was 4.37; at ERK2 D319N, 4.49.

On to `CC[C@H](C)[C@H](NC(=O)[C@@H](NC(=O)[C@H](CCC(=O)O)NC(=O)[C@H](CCSC)NC(=O)[C@H](CCC(N)=O)NC(=O)[C@H](CCCNC(=N)N)NC(=O)[C@H](CCCNC(=N)N)NC(=O)[C@H](CC(N)=O)NC(=O)[C@H](CCCNC(=N)N)NC(=O)[C@H](CC(C)C)NC(=O)[C@H](C)NC(=O)[C@@H](N)Cc1ccc(O)cc1)C(C)C)C(=O)N[C@@H](CO)C(=O)N[C@@H](CC(C)C)C(=O)N[C@@H](CCCNC(=N)N)C(=O)N[C@@H](CC(C)C)C(=O)O` [DISC1] (H-YALRNRRQMEVISLRL-OH), for which the pIC50 on ERK2 R133K (setting [3]) was 4.13; at ERK2 WT (setting [3]), 4.64; at ERK2 E322K (setting [3]) it was 3.96; at ERK2 D319N, 4.10.

For `CC(C)C[C@H](NC(=O)[C@H](C)NC(=O)[C@@H](N)Cc1ccc(O)cc1)C(=O)N[C@@H](CCC(N)=O)C(=O)N[C@@H](CCC(N)=O)C(=O)N[C@@H](CCCNC(=N)N)C(=O)N[C@@H](CCCNC(=N)N)C(=O)N[C@@H](CC(C)C)C(=O)N[C@@H](CCC(N)=O)C(=O)N[C@@H](Cc1c[nH]cn1)C(=O)N[C@@H](CCCNC(=N)N)C(=O)N[C@@H](CC(C)C)C(=O)N[C@@H](CCCNC(=N)N)C(=O)N[C@@H](CC(C)C)C(=O)N[C@@H](CCCNC(=N)N)C(=O)N[C@@H](C)C(=O)O` [AEBP1] (H-YALQQRRLQHRLRLRA-OH), the pIC50 is 3.96 at ERK2 R133K (setting [3]), 4.80 on ERK2 WT (setting [3]), 3.80 on ERK2 E322K (setting [3]) and 3.92 at ERK2 D319N.

Take `CC[C@H](C)[C@H](NC(=O)[C@H](C)NC(=O)[C@@H](N)Cc1ccc(O)cc1)C(=O)N[C@@H](CCCCN)C(=O)NCC(=O)N[C@@H](CCCCN)C(=O)N[C@@H](CCCNC(=N)N)C(=O)N[C@@H](CCCNC(=N)N)C(=O)N[C@@H](CCCNC(=N)N)C(=O)N[C@@H](CCCCN)C(=O)N[C@@H](CCCCN)C(=O)N[C@@H](CC(C)C)C(=O)N[C@H](C(=O)N[C@@H](CC(C)C)C(=O)N[C@@H](C)C(=O)N[C@@H](CCCCN)C(=O)O)[C@@H](C)CC` [ZBED6] (H-YAIKGKRRRKKLILAK-OH): the pIC50 on ERK2 R133K (setting [3]) is 5.21; at ERK2 WT (setting [3]) it was 5.17; on ERK2 E322K (setting [3]), 4.25; on ERK2 D319N, 4.64.

As to `CC(C)C[C@H](NC(=O)[C@@H](NC(=O)[C@H](CC(C)C)NC(=O)[C@H](CO)NC(=O)[C@@H](NC(=O)[C@H](CC(N)=O)NC(=O)[C@H](CO)NC(=O)CNC(=O)[C@H](CCCNC(=N)N)NC(=O)[C@H](CCCNC(=N)N)NC(=O)[C@H](CCC(=O)O)NC(=O)[C@H](CCC(N)=O)NC(=O)[C@H](CC(C)C)NC(=O)CNC(=O)[C@H](C)NC(=O)[C@@H](N)Cc1ccc(O)cc1)C(C)C)[C@@H](C)O)C(=O)O` [PTPN5] (H-YAGLQERRGSNVSLTL-OH), the pIC50 was 3.12 at ERK2 R133K (setting [3]), 4.38 at ERK2 WT (setting [3]), 3.22 on ERK2 E322K (setting [3]) and 3.22 at ERK2 D319N.

On to `CC(C)C[C@H](NC(=O)[C@H](CC(C)C)NC(=O)[C@H](CC(C)C)NC(=O)[C@H](CCCNC(=N)N)NC(=O)[C@H](CCCCN)NC(=O)[C@@H]1CCCN1C(=O)[C@H](CCCCN)NC(=O)[C@@H]1CCCN1C(=O)CNC(=O)[C@H](CCCNC(=N)N)NC(=O)[C@H](CCCCN)NC(=O)[C@H](CCCNC(=N)N)NC(=O)[C@H](C)NC(=O)[C@@H](N)Cc1ccc(O)cc1)C(=O)N[C@@H](CCC(N)=O)C(=O)N[C@@H](CCCNC(=N)N)C(=O)O` [CBX7] (H-YARKRGPKPKRLLLQR-OH), for which the pIC50 on ERK2 R133K (setting [3]) is 5.24; at ERK2 WT (setting [3]), 5.29; on ERK2 E322K (setting [3]), 4.85; at ERK2 D319N, 5.01.

Take `CC(C)C[C@H](NC(=O)CNC(=O)[C@H](CCCCN)NC(=O)[C@H](Cc1ccccc1)NC(=O)[C@H](CC(N)=O)NC(=O)[C@H](CCCCN)NC(=O)[C@H](Cc1c[nH]c2ccccc12)NC(=O)[C@H](CCCCN)NC(=O)[C@@H]1CCCN1C(=O)[C@H](CO)NC(=O)[C@H](C)NC(=O)[C@@H](N)Cc1ccc(O)cc1)C(=O)N[C@@H](CCCCN)C(=O)N[C@@H](CC(C)C)C(=O)N[C@@H](CC(C)C)C(=O)N[C@@H](CS)C(=O)O` [MLXIPL] (H-YASPKWKNFKGLKLLC-OH): the pIC50 at ERK2 R133K (setting [3]) is 4.64; at ERK2 WT (setting [3]), 4.74; at ERK2 E322K (setting [3]) it was 4.55; on ERK2 D319N, 4.59.

In the case of `CC(C)C[C@H](NC(=O)CNC(=O)[C@H](CCCNC(=N)N)NC(=O)[C@H](CCCNC(=N)N)NC(=O)[C@H](C)NC(=O)[C@H](CS)NC(=O)[C@H](CC(C)C)NC(=O)[C@H](C)NC(=O)[C@@H](N)Cc1ccc(O)cc1)C(=O)N[C@@H](Cc1ccc(O)cc1)C(=O)N[C@@H](CS)C(=O)N[C@@H](CC(C)C)C(=O)N[C@@H](CO)C(=O)N[C@@H](CC(C)C)C(=O)N[C@@H](CC(=O)O)C(=O)N[C@@H](Cc1c[nH]cn1)C(=O)O` [FAAP100], the negative logarithm of the IC50 (pIC50) at ERK2 R133K (setting [3]) was less than 3.70; on ERK2 WT (setting [3]), 4.04; at ERK2 E322K (setting [3]) it was less than 3.70; at ERK2 D319N it was less than 3.70.

For `CC[C@H](C)[C@H](NC(=O)[C@H](CC(C)C)NC(=O)[C@@H]1CCCN1C(=O)[C@H](CCC(=O)O)NC(=O)[C@@H]1CCCN1C(=O)[C@H](CCCNC(=N)N)NC(=O)[C@@H]1CCCN1C(=O)[C@H](CCCNC(=N)N)NC(=O)[C@H](CCC(N)=O)NC(=O)[C@H](CCCCN)NC(=O)[C@@H]1CCCN1C(=O)[C@H](C)NC(=O)[C@@H](N)Cc1ccc(O)cc1)C(=O)N[C@H](C(=O)N1CCC[C@H]1C(=O)N[C@H](C(=O)O)[C@@H](C)O)[C@@H](C)CC` [ELMSAN1] (H-YAPKQRPRPEPLIIPT-OH), the pIC50 at ERK2 R133K (setting [3]) was 4.57; on ERK2 WT (setting [3]), 4.62; at ERK2 E322K (setting [3]), 4.40; on ERK2 D319N, 4.52.

Take `CSCC[C@H](NC(=O)[C@H](CC(C)C)NC(=O)[C@H](C)NC(=O)[C@@H](N)Cc1ccc(O)cc1)C(=O)N[C@@H](CCC(=O)O)C(=O)N[C@@H](CCCNC(=N)N)C(=O)N[C@@H](CCCNC(=N)N)C(=O)N[C@@H](CCCNC(=N)N)C(=O)N[C@@H](CC(C)C)C(=O)N[C@@H](CC(N)=O)C(=O)N[C@@H](CCC(N)=O)C(=O)N[C@@H](CC(C)C)C(=O)N[C@@H](CC(C)C)C(=O)N[C@@H](CC(C)C)C(=O)N1CCC[C@H]1C(=O)N[C@@H](CC(C)C)C(=O)O` [ANAPC5] (H-YALMERRRLNQLLLPL-OH): the results for the negative-log IC50 (pIC50) on ERK2 R133K (setting [3]) and at ERK2 WT (setting [3]) were 3.47 and 4.49, respectively.
